Measurements published in patent US7820623B2 (priority 2006, dated 2010).
Bridge positions count the residues as written; N and C are the ends. Square brackets hold non-standard residues; d marks the D form. Peptide text beside a SMILES is read from it. 1Nal = N[C@@H](Cc1cccc2ccccc12)C(=O)O

Assays:
[1] = test system: thapsigargin-induced IFN-g production in human whole blood; format: cell-based; conditions: read-out: Analogue Activity (IC50) WB/IFNg
[2] = test system: thapsigargin-induced IL-2 production in human whole blood; conditions: read-out: Analogue Activity (IC50) WB/IL-2

SMILES | IC50 [1] | IC50 [2]
CC[C@H](C)[C@@H]1NC(=O)[C@H](CCCCN)NC(=O)[C@@H](NC(=O)[C@H](CCCCN)NC(=O)[C@@H](NC(=O)[C@H](CC(N)=O)NC(=O)[C@@H](NC(=O)[C@@H](NC(=O)[C@@H](NC(=O)CN)C(C)C)[C@@H](C)CC)[C@@H](C)CC)C(C)C)CSSC[C@@H]2NC(=O)[C@H](CCCCN)NC(=O)CNC(=O)[C@H](Cc3ccccc3)NC(=O)[C@H](CCCNC(=N)N)NC(=O)[C@H](CCSC)NC(=O)CNC(=O)[C@H](C)NC(=O)[C@H](CCCCN)NC(=O)[C@H](CCCCN)NC(=O)[C@@H]3CSSC[C@@H](C(=O)N[C@H](C(=O)N4CCC[C@H]4C(=O)N[C@@H](CCCCN)C(=O)O)[C@@H](C)O)NC(=O)[C@H](Cc4c[nH]cn4)NC(=O)[C@H](CSSC[C@H](NC(=O)[C@H](CCC(N)=O)NC(=O)[C@H](CCCNC(=N)N)NC(=O)[C@H](CO)NC1=O)C(=O)N[C@@H](CC(C)C)C(=O)N[C@@H](CCC(=O)O)C(=O)N1CCC[C@H]1C(=O)N3)NC(=O)[C@H](CCCCN)NC(=O)CNC(=O)[C@H](CCCNC(=N)N)NC(=O)[C@H](CCSC)NC2=O [N30R] (H-GVIINVKCKISRQCLEPCKKAGMRFGKCMRGKCHCTPK-OH; disulfide 8-28, 14-33, 18-35) | 0.445 nM | 0.405 nM
CC[C@H](C)[C@@H]1NC(=O)[C@H](CCCCN)NC(=O)[C@@H](NC(=O)[C@H](CCCCN)NC(=O)[C@@H](NC(=O)[C@H](CC(N)=O)NC(=O)[C@@H](NC(=O)[C@@H](NC(=O)[C@@H](NC(=O)CN)C(C)C)[C@@H](C)CC)[C@@H](C)CC)C(C)C)CSSC[C@@H]2NC(=O)[C@H](CCCCN)NC(=O)CNC(=O)[C@H](Cc3ccccc3)NC(=O)[C@H](CCCNC(=N)N)NC(=O)[C@H](CCSC)NC(=O)CNC(=O)[C@H](C)NC(=O)[C@H](CCCCN)NC(=O)[C@H](CCCCN)NC(=O)[C@@H]3CSSC[C@@H](C(=O)N[C@H](C(=O)N4CCC[C@H]4C(=O)N[C@@H](CCCCN)C(=O)O)[C@@H](C)O)NC(=O)[C@H](Cc4c[nH]cn4)NC(=O)[C@H](CSSC[C@H](NC(=O)[C@H](CCC(N)=O)NC(=O)[C@H](CCCNC(=N)N)NC(=O)[C@H](CO)NC1=O)C(=O)N[C@@H](CC(C)C)C(=O)N[C@@H](CCC(=O)O)C(=O)N[C@@H](C)C(=O)N3)NC(=O)[C@H](CCCCN)NC(=O)CNC(=O)[C@H](CC(N)=O)NC(=O)[C@H](CCSC)NC2=O [P17A] (H-GVIINVKCKISRQCLEACKKAGMRFGKCMNGKCHCTPK-OH; disulfide 8-28, 14-33, 18-35) | 0.173 nM | 0.173 nM
CC[C@H](C)[C@@H]1NC(=O)[C@H](CCCCN)NC(=O)[C@@H](NC(=O)[C@H](CCCCN)NC(=O)[C@@H](NC(=O)[C@H](CC(N)=O)NC(=O)[C@@H](NC(=O)[C@@H](NC(=O)[C@@H](NC(=O)CN)C(C)C)[C@@H](C)CC)[C@@H](C)CC)C(C)C)CSSC[C@@H]2NC(=O)[C@H](CCCCN)NC(=O)CNC(=O)[C@H](Cc3ccccc3)NC(=O)[C@H](CCCNC(=N)N)NC(=O)[C@H](CCSC)NC(=O)CNC(=O)[C@H](C)NC(=O)[C@H](CCCCN)NC(=O)[C@H](CCCCN)NC(=O)[C@@H]3CSSC[C@@H](C(=O)N[C@H](C(=O)N4CCC[C@H]4C(=O)N[C@@H](CCCCN)C(=O)O)[C@@H](C)O)NC(=O)[C@H](Cc4c[nH]cn4)NC(=O)[C@H](CSSC[C@H](NC(=O)[C@H](CCC(N)=O)NC(=O)[C@H](CCCNC(=N)N)NC(=O)[C@H](CO)NC1=O)C(=O)N[C@@H](CC(C)C)C(=O)N[C@@H](CCC(=O)O)C(=O)N[C@@H](CCC(=O)O)C(=O)N3)NC(=O)[C@H](CCCCN)NC(=O)CNC(=O)[C@H](CC(N)=O)NC(=O)[C@H](CCSC)NC2=O [P17E] (H-GVIINVKCKISRQCLEECKKAGMRFGKCMNGKCHCTPK-OH; disulfide 8-28, 14-33, 18-35) | 0.947 nM | 0.52 nM
CC[C@H](C)[C@@H]1NC(=O)[C@H](CCCCN)NC(=O)[C@@H](NC(=O)[C@H](CCCCN)NC(=O)[C@@H](NC(=O)[C@H](CC(N)=O)NC(=O)[C@@H](NC(=O)[C@@H](NC(=O)[C@@H](NC(=O)CN)C(C)C)[C@@H](C)CC)[C@@H](C)CC)C(C)C)CSSC[C@@H]2NC(=O)[C@H](CCCCN)NC(=O)CNC(=O)[C@H](Cc3ccccc3)NC(=O)[C@H](CCCNC(=N)N)NC(=O)[C@H](CCSC)NC(=O)CNC(=O)[C@H](C)NC(=O)[C@H](CCCCN)NC(=O)[C@H](CCCCN)NC(=O)[C@@H]3CSSC[C@@H](C(=O)N[C@H](C(=O)N4CCC[C@H]4C(=O)N[C@@H](CCCCN)C(=O)O)[C@@H](C)O)NC(=O)[C@H](Cc4c[nH]cn4)NC(=O)[C@H](CSSC[C@H](NC(=O)[C@H](CCC(N)=O)NC(=O)[C@H](CCCNC(=N)N)NC(=O)[C@H](CO)NC1=O)C(=O)N[C@@H](CC(C)C)C(=O)N[C@@H](CCC(=O)O)C(=O)N[C@@H](Cc1cccc4ccccc14)C(=O)N3)NC(=O)[C@H](CCCCN)NC(=O)CNC(=O)[C@H](CC(N)=O)NC(=O)[C@H](CCSC)NC2=O [P17Nal] (H-GVIINVKCKISRQCLE[1Nal]CKKAGMRFGKCMNGKCHCTPK-OH; disulfide 8-28, 14-33, 18-35) | 0.357 nM | 0.193 nM
CC[C@H](C)[C@@H]1NC(=O)[C@H](CCCCN)NC(=O)[C@@H](NC(=O)[C@H](CCCCN)NC(=O)[C@@H](NC(=O)[C@H](CC(N)=O)NC(=O)[C@@H](NC(=O)[C@@H](NC(=O)[C@@H](NC(=O)CN)C(C)C)[C@@H](C)CC)[C@@H](C)CC)C(C)C)CSSC[C@@H]2NC(=O)[C@H](CCCCN)NC(=O)CNC(=O)[C@H](Cc3ccccc3)NC(=O)[C@H](CCCNC(=N)N)NC(=O)[C@H](CCSC)NC(=O)CNC(=O)[C@H](C)NC(=O)[C@H](CCCCN)NC(=O)[C@H](CCCCN)NC(=O)[C@@H]3CSSC[C@@H](C(=O)N[C@H](C(=O)N4CCC[C@H]4C(=O)N[C@@H](CCCCN)C(=O)O)[C@@H](C)O)NC(=O)[C@H](Cc4c[nH]cn4)NC(=O)[C@H](CSSC[C@H](NC(=O)[C@H](CCC(N)=O)NC(=O)[C@H](CCCNC(=N)N)NC(=O)[C@H](CO)NC1=O)C(=O)N[C@@H](CC(C)C)C(=O)N[C@@H](CCC(=O)O)C(=O)N[C@@H](CCCNC(=N)N)C(=O)N3)NC(=O)[C@H](CCCCN)NC(=O)CNC(=O)[C@H](CC(N)=O)NC(=O)[C@H](CCSC)NC2=O [P17R] (H-GVIINVKCKISRQCLERCKKAGMRFGKCMNGKCHCTPK-OH; disulfide 8-28, 14-33, 18-35) | 0.355 nM | 0.202 nM
CC[C@H](C)[C@@H]1NC(=O)[C@H](CCCCN)NC(=O)[C@@H](NC(=O)[C@H](CCCCN)NC(=O)[C@@H](NC(=O)[C@H](CC(N)=O)NC(=O)[C@@H](NC(=O)[C@@H](NC(=O)[C@@H](NC(=O)CN)C(C)C)[C@@H](C)CC)[C@@H](C)CC)C(C)C)CSSC[C@@H]2NC(=O)[C@H](CCCCN)NC(=O)CNC(=O)[C@H](Cc3ccccc3)NC(=O)[C@H](CCCNC(=N)N)NC(=O)[C@H](CCSC)NC(=O)CNC(=O)[C@H](C)NC(=O)[C@H](CCCCN)NC(=O)[C@H](CCCCN)NC(=O)[C@@H]3CSSC[C@@H](C(=O)N[C@H](C(=O)N[C@@H](Cc4cccc5ccccc45)C(=O)N[C@@H](CCCCN)C(=O)O)[C@@H](C)O)NC(=O)[C@H](Cc4c[nH]cn4)NC(=O)[C@H](CSSC[C@H](NC(=O)[C@H](CCC(N)=O)NC(=O)[C@H](CCCNC(=N)N)NC(=O)[C@H](CO)NC1=O)C(=O)N[C@@H](CC(C)C)C(=O)N[C@@H](CCC(=O)O)C(=O)N1CCC[C@H]1C(=O)N3)NC(=O)[C@H](CCCCN)NC(=O)CNC(=O)[C@H](CC(N)=O)NC(=O)[C@H](CCSC)NC2=O [P37Nal] (H-GVIINVKCKISRQCLEPCKKAGMRFGKCMNGKCHCT[1Nal]K-OH; disulfide 8-28, 14-33, 18-35) | 3.04 nM | 1.76 nM
CC[C@H](C)[C@@H]1NC(=O)[C@H](CCCCN)NC(=O)[C@@H](NC(=O)[C@H](CCCCN)NC(=O)[C@@H](NC(=O)[C@H](CC(N)=O)NC(=O)[C@@H](NC(=O)[C@@H](NC(=O)[C@@H](NC(=O)CN)C(C)C)[C@@H](C)CC)[C@@H](C)CC)C(C)C)CSSC[C@@H]2NC(=O)[C@H](CCCCN)NC(=O)CNC(=O)[C@H](Cc3ccccc3)NC(=O)[C@H](CCCNC(=N)N)NC(=O)[C@H](CCSC)NC(=O)CNC(=O)[C@H](C)NC(=O)[C@H](CCCCN)NC(=O)[C@H](CCCCN)NC(=O)[C@@H]3CSSC[C@@H](C(=O)N[C@H](C(=O)N[C@@H](CCCNC(=N)N)C(=O)N[C@@H](CCCCN)C(=O)O)[C@@H](C)O)NC(=O)[C@H](Cc4c[nH]cn4)NC(=O)[C@H](CSSC[C@H](NC(=O)[C@H](CCC(N)=O)NC(=O)[C@H](CCCNC(=N)N)NC(=O)[C@H](CO)NC1=O)C(=O)N[C@@H](CC(C)C)C(=O)N[C@@H](CCC(=O)O)C(=O)N1CCC[C@H]1C(=O)N3)NC(=O)[C@H](CCCCN)NC(=O)CNC(=O)[C@H](CC(N)=O)NC(=O)[C@H](CCSC)NC2=O [P37R] (H-GVIINVKCKISRQCLEPCKKAGMRFGKCMNGKCHCTRK-OH; disulfide 8-28, 14-33, 18-35) | 0.253 nM | 0.229 nM
CC[C@H](C)[C@@H]1NC(=O)[C@H](CCCCN)NC(=O)[C@@H](NC(=O)[C@H](CCCCN)NC(=O)[C@@H](NC(=O)[C@H](CC(N)=O)NC(=O)[C@@H](NC(=O)[C@@H](NC(=O)[C@@H](NC(=O)CN)C(C)C)[C@@H](C)CC)[C@@H](C)CC)C(C)C)CSSC[C@@H]2NC(=O)[C@H](CCCCN)NC(=O)CNC(=O)[C@H](Cc3ccccc3)NC(=O)[C@H](CCCNC(=N)N)NC(=O)[C@H](CCSC)NC(=O)CNC(=O)[C@H](C)NC(=O)[C@H](CCCCN)NC(=O)[C@H](CCCCN)NC(=O)[C@@H]3CSSC[C@@H](C(=O)N[C@H](C(=O)N4CCC[C@H]4C(=O)N[C@@H](CCCCN)C(=O)O)[C@@H](C)O)NC(=O)[C@H](Cc4c[nH]cn4)NC(=O)[C@H](CSSC[C@H](NC(=O)[C@H](C)NC(=O)[C@H](CCCNC(=N)N)NC(=O)[C@H](CO)NC1=O)C(=O)N[C@@H](CC(C)C)C(=O)N[C@@H](CCC(=O)O)C(=O)N1CCC[C@H]1C(=O)N3)NC(=O)[C@H](CCCCN)NC(=O)CNC(=O)[C@H](CC(N)=O)NC(=O)[C@H](CCSC)NC2=O [Q13A] (H-GVIINVKCKISRACLEPCKKAGMRFGKCMNGKCHCTPK-OH; disulfide 8-28, 14-33, 18-35) | 0.133 nM | 0.148 nM
